Reference: patent US20220324865A1 (Bayer Aktiengesellschaft, priority 2018, published 2022)

Target: T1, human EP3 receptor (Homo sapiens, UniProt P43115)
T1 construct: expressed in transfected cells; host or cells: CHO K1 (Chinese Hamster Ovary), stably co-transfected with Galpha16 and mitochondrial clytin
T1 sequence (P43115 1-390): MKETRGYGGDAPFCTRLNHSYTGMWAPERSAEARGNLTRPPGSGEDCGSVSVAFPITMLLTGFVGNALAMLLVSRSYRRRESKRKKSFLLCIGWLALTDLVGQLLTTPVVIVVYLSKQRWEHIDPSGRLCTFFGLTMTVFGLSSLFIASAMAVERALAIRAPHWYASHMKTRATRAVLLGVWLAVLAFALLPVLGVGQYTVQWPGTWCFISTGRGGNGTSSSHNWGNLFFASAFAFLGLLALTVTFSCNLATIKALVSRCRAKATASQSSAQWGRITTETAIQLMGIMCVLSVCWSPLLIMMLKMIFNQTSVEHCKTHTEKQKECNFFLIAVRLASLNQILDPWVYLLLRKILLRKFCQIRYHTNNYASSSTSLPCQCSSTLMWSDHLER
Assay: Cellular in vitro assay for determining EP3 receptor activity (human EP3 cell line, sulprostone-stimulated calcium luminescence)
Format: cell-based
Conditions: CHO cells expressing human EP3 and mitochondrial Clytin; antagonist mode, sulprostone at EC50; read-out: EP3 CHO mtCLY ANTAG IC50
Procedure: B-1. Cellular In Vitro Assay for Determining EP3 Receptor Activity
The identification of antagonists of the EP3 receptor from humans and rats as well as the quantification of the activity of the compounds of the invention was carried out using recombinant cell lines. These cell lines originally derive from a hamsters ovary epithelial cell (Chinese Hamster Ovary, CHO K1, ATCC: American Type Culture Collection, Manassas, Va. 20108, USA). The test cell lines constitutively express the human or rat EP3 receptors. The naturally Gαi-coupled human and rat EP3 receptors were stably co-transfected with Gα16 into cells that are also stably transfected with a mitochondrial form of the calcium-sensitive photoproteins Clytin (human EP3) or Photina (rat EP3), which, after reconstitution with the cofactor coelenterazine, emit light when there are increases in free calcium concentrations (Nature 1992, 358, 325-327; Gene 1995, 153 (2), 273-274). The resulting EP3 receptor cells react to stimulation of the recombinantly expressed EP3 receptors by the agonist sulprostone with intracellular release of calcium ions, which can be quantified by the resulting photoprotein luminescence. Antagonists inhibit the receptor signaling, leading to reduced calcium release and luminescence. The bioluminescence of the cell lines is detected using a suitable luminometer (Trends Pharmacol. Sci. 1996, 17, 235-237).
Human and Rat EP3 Cell Lines:
On the day before the assay, the cells are plated out in culture medium (OptiMEM, 1% FCS, 2 mM glutamine, 10 mM HEPES, 5 μg/ml coelenterazine) in 384-well microtiter plates and kept in a cell incubator (96% humidity, 5% v/v CO2, 37° C.). On the day of the assay, test compounds in various concentrations are placed for 10 minutes in the wells of the microtiter plate before the agonist sulprostone at EC50 concentration is added. The resulting light signal is measured immediately in a luminometer. All concentrations are measured in quadruples.

With `Cc1ccc(-c2cn3nc(C(=O)NC(C)C4CCC4)c(C(F)(F)F)c3c(=O)[nH]2)cc1Cl` (single isomer, unassigned) [6-194] the IC50 was 2.55 nM.
`C[C@H](NC(=O)c1nn2cc(-c3ccc(Cl)c(Cl)c3)[nH]c(=O)c2c1C1CCC1)C1CC1` [6-569] showed an IC50 of 1.45 nM.
`O=C(N[C@@H](c1ccc(F)cc1)C(F)(F)CO)c1nn2cc(-c3ccc(Cl)c(F)c3)[nH]c(=O)c2c1C1CCC1` [6-571] gave an IC50 of 1.5 nM.
For `Cc1ccc(-c2cn3nc(C(=O)N[C@@H](c4ccc(F)cc4)C(C)(C)O)c(C(F)(F)F)c3c(=O)[nH]2)cc1Cl` [Example 1-151, 6-(3-Chloro-4-methylphenyl)-N-[(1S)-1-(4-fluorophenyl)-2-hydroxy-2-methylpropyl]-4-oxo-3-(trifluoromethyl)-4,5-dihydropyrazolo[1,5-a]pyrazine-2-carboxamide], the IC50 was 1.15 nM.
Compound `Cc1c(C(=O)NCCn2ccc(C3CC3)n2)nn2c(C)c(-c3ccc4ccccc4c3)[nH]c(=O)c12` [Example 3-1, N-[2-(3-Cyclopropyl-1H-pyrazol-1-yl)ethyl]-3,7-dimethyl-6-(naphthalen-2-yl)-4-oxo-4,5-dihydropyrazolo[1,5-a]pyrazine-2-carboxamide] has an IC50 of 0.79 nM.
`O=C(NC(c1ccc(F)cc1)C1(O)CC1)c1nn2cc(-c3ccc(Cl)c(Cl)c3)[nH]c(=O)c2c1C1CC1` (single isomer, unassigned) [6-423] gave an IC50 of 0.62 nM.
`Cc1ccc([C@H](C)NC(=O)c2nn3c(C)c(-c4ccc5ccccc5c4)[nH]c(=O)c3c2C)cc1` [Example 3-20, 3,7-Dimethyl-N-[(7S)-1-(4-methylphenyl)ethyl]-6-(naphthalen-2-yl)-4-oxo-4,5-dihydropyrazolo[1,5-a]pyrazine-2-carboxamide] showed an IC50 of 8 nM.
Compound `Cc1c(C(=O)NC2CCc3ccccc32)nn2c(C)c(-c3ccc4ccccc4c3)[nH]c(=O)c12` (stereo not shown) [Example 3-75, N-(2,3-Dihydro-1H-inden-1-yl)-3,7-dimethyl-6-(2-naphthyl)-4-oxo-4,5-dihydropyrazolo[1,5-a]pyrazine-2-carboxamide] has an IC50 of 6.45 nM.
Compound `Cc1cccc2ncc(-c3cn4nc(C(=O)N[C@@H](c5ccc(F)cc5)C(C)(C)O)c(C(F)(F)F)c4c(=O)[nH]3)cc12` [6-546] has an IC50 of 3.13 nM.
With `Cc1cccc2ncc(-c3cn4nc(C(=O)N[C@H]5c6ccccc6C[C@H]5O)c(C(C)C)c4c(=O)[nH]3)cc12` [Example 4-69, N-[(7S,2R)-2-Hydroxy-2,3-dihydro-1H-inden-1-yl]-6-(5-methylquinolin-3-yl)-4-oxo-3-(propan-2-yl)-4,5-dihydropyrazolo[1,5-a]pyrazine-2-carboxamide] the IC50 was 2 nM.
For `Cc1cc(-c2cn3nc(C(=O)N[C@H](C)C4CC4)c(C(F)(F)C(F)(F)F)c3c(=O)[nH]2)ccc1Cl` [6-476], the IC50 was 5.3 nM.
For `Cc1ccc(-c2[nH]c(=O)c3c(C(F)(F)F)c(C(=O)N[C@H](C)c4ccc(F)cc4)nn3c2C)cc1C` [Example 1-123, 6-(3,4-Dimethylphenyl)-N-[(1R)-1-(4-fluorophenyl)ethyl]-7-methyl-4-oxo-3-(trifluoromethyl)-4,5-dihydropyrazolo[1,5-a]pyrazine-2-carboxamide], the IC50 was 3.2 nM.
`Cc1ccc(-c2cn3nc(C(=O)N[C@@H](C)C4CC4)c(C4CC4(F)F)c3c(=O)[nH]2)cc1Cl` (stereo partly shown) [6-561] was tested, and the IC50 was 1.1 nM.
With `Cc1ccc(-c2cn3nc(C(=O)NCC(O)C(F)(F)F)c(C)c3c(=O)[nH]2)cc1F` (single isomer, unassigned) [6-410] the IC50 was 5.18 nM.
`COCc1c(C(=O)N[C@H](CCO)c2ccccc2)nn2cc(-c3ccc4ccccc4c3)[nH]c(=O)c12` [Example 1-76, N-[(1R)-3-Hydroxy-1-phenylpropyl]-3-(methoxymethyl)-6-(naphthalen-2-yl)-4-oxo-4,5-dihydropyrazolo[1,5-a]pyrazine-2-carboxamide] gave an IC50 of 0.725 nM.
For `O=C(NCC(O)(C(F)(F)F)C(F)(F)F)c1nn2cc(-c3ccc(Cl)c(F)c3)[nH]c(=O)c2c1C1CC1` [6-88], the IC50 was 4.55 nM.
For `Cc1cc(-c2cn3nc(C(=O)N[C@H](CN4CC(F)C4)c4ccc(F)cc4)c(C(F)(F)F)c3c(=O)[nH]2)ccc1Cl` [6-231], the IC50 was 3.25 nM.
`CN(CCNC(=O)c1nn2cc(-c3ccc4ccccc4c3)[nH]c(=O)c2c1C(F)(F)F)C1CC1` [6-517] showed an IC50 of 4.2 nM.
`Cc1cc(-c2cn3nc(C(=O)N[C@@H](c4ccc(F)cc4)C(C)(C)O)c(C4CC4(F)F)c3c(=O)[nH]2)ccc1Cl` (stereo partly shown) [6-551] showed an IC50 of 1.7 nM.
For `Cc1cccc2ncc(-c3cn4nc(C(=O)NC(C)c5ccc(F)cc5)c(C(C)C)c4c(=O)[nH]3)cc12` (stereo not shown) [Example 4-11, N-[1-(4-Fluorophenyl)ethyl]-3-isopropyl-6-(5-methyl-3-quinolyl)-4-oxo-5H-pyrazolo[1,5-a]pyrazine-2-carboxamide], the IC50 was 0.735 nM.
With `O=C(N[C@H](CCO)c1ccc(F)cc1)c1nn2cc(-c3ccc4ccccc4c3)[nH]c(=O)c2c1C1CC1` [Example 1-144, 3-Cyclopropyl-N-[(1R)-1-(4-fluorophenyl)-3-hydroxypropyl]-6-(naphthalen-2-yl)-4-oxo-4,5-dihydropyrazolo[1,5-a]pyrazine-2-carboxamide] the IC50 was 3.05 nM.
`C[C@@H](NC(=O)c1cc2c(=O)[nH]c(-c3ccc4c(c3)COCC4)cn2n1)c1ccc(F)cc1` [Example 1-112, 6-(3,4-Dihydro-1H-2-benzopyran-7-yl)-N-[(1R)-1-(4-fluorophenyl)ethyl]-4-oxo-4,5-dihydropyrazolo[1,5-a]pyrazine-2-carboxamide] was tested, and the IC50 was 3.35 nM.
With `O=C(NCc1cc(F)ccc1F)c1cc2c(=O)[nH]c(-c3ccc4ccccc4c3)cn2n1` [Example 2-53, N-(2,5-Difluorobenzyl)-6-(2-naphthyl)-4-oxo-4,5-dihydropyrazolo[1,5-a]pyrazine-2-carboxamide] the IC50 was 3.7 nM.
`CCn1cc(CNC(=O)c2nn3cc(-c4ccc(C)c(C)c4)[nH]c(=O)c3c2Cl)c(C)n1` [6-112] was tested, and the IC50 was 1.14 nM.
`Cc1cc(-c2cn3nc(C(=O)N[C@@H](c4ccc(F)cc4)C(C)(C)O)c(C(F)(F)F)c3c(=O)[nH]2)ccc1Cl` [Example 1-166, 6-(4-Chloro-3-methylphenyl)-N-[(1S)-1-(4-fluorophenyl)-2-hydroxy-2-methylpropyl]-4-oxo-3-(trifluoromethyl)-4,5-dihydropyrazolo[1,5-a]pyrazine-2-carboxamide] gave an IC50 of 3.15 nM.
`Cc1cc(-c2cn3nc(C(=O)N[C@H](C)C(C)C)c(C(F)(F)F)c3c(=O)[nH]2)ccc1Cl` [6-217] gave an IC50 of 1.95 nM.
Compound `O=C(N[C@@H]1CCCc2ccccc21)c1cc2c(=O)[nH]c(-c3ccc4ccccc4c3)cn2n1` [Example 2-43, 6-(2-Naphthyl)-4-oxo-N-[(7R)-1,2,3,4-tetrahydronaphthalin-1-yl]-4,5-dihydropyrazolo[1,5-a]pyrazine-2-carboxamide] has an IC50 of 3.7 nM.
In the case of `O=C(NC1(c2ccc(F)cc2)CN(C(CF)CF)C1)c1nn2cc(-c3ccc4ccccc4c3)[nH]c(=O)c2c1C(F)(F)F` [Example 1-177, N-[1-(1,3-Difluoropropan-2-yl)-3-(4-fluorophenyl)azetidin-3-yl]-6-(naphthalen-2-yl)-4-oxo-3-(trifluoro-methyl)-4,5-dihydropyrazolo[1,5-a]pyrazine-2-carboxamide], the IC50 is reported as 5 nM.
`C[C@H](NC(=O)c1cc2c(=O)[nH]c(-c3ccc4ccccc4c3)cn2n1)c1ccc(F)cc1` [6-79] gave an IC50 of 4.57 nM.
`C[C@@H](NC(=O)c1cc2c(=O)[nH]c(-c3ccc4ccccc4c3)cn2n1)c1ccc(C(F)(F)F)cc1` [Example 1-1, 6-(Naphthalen-2-yl)-4-oxo-N-{(1R)-1-[4-(trifluoromethyl)phenyl]ethyl}-4,5-dihydropyrazolo[1,5-a]-pyrazine-2-carboxamide] showed an IC50 of 1.6 nM.
In the case of `COc1ccc(CCNC(=O)c2cc3c(=O)[nH]c(-c4ccc5c(c4)OCCO5)cn3n2)cc1OC` [6-77], the IC50 is reported as 2.28 nM.
Work on `O=C(N[C@@H](c1ccc(F)cc1)C(F)(F)CO)c1nn2cc(-c3cccc(Cl)c3)[nH]c(=O)c2c1C1CC1` [6-678] yielded an IC50 of 5.2 nM.
In the case of `Cc1cc(-c2cn3nc(C(=O)NC4(c5ccc(F)cc5)CN(C5CC5)C4)c(C(F)(F)F)c3c(=O)[nH]2)ccc1Cl` [6-238], the IC50 is reported as 1.4 nM.
With `CC(C)(O)[C@@H](NC(=O)c1nn2cc(-c3ccc(Cl)c(C(F)F)c3)[nH]c(=O)c2c1C1CC1)c1ccc(F)cc1` [6-666] the IC50 was 1.4 nM.
